We go through three compounds from patent US11866430B2, “Naphthyridinone compounds useful as T cell activators” (priority 2018, dated 2024).

For orientation: IC50 means the concentration that gives 50% inhibition.

Like-named read-outs stand apart in the source and are kept apart here.

The subject of test [1] is OT-1 antigen-specific CD8+ T cells with MC38 tumor cells. In words: Murine Cytotoxic T Lymphocyte Assay (IFN-γ). It counts as cell-based, mouse. Conditions: Mus musculus, MC-38, read-out: msCTL INF-γ IC50, murine CTL IFN-γ (table title reads INF-γ Whole Blood Normalized Agonist EC50).
The next test concerns the target human DGKα (Homo sapiens (Human), UniProt P23743). In words: DGKα LIPGLO assay (extruded liposome substrate). It counts as biochemical. In short, it runs like this: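 Human full-length DGKα, His-tagged and produced in Sf9 cells, assayed at 20 nM (4× stock) on extruded liposomes of PS, 0.25 mM DAG and 2.75 mM PC, preincubated 10 min. Reaction started with 300 μM ATP (stock) and ran 1 h in MOPS pH 7.5/MgCl2/CaCl2/DTT buffer.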

In test [2] the test system is Jurkat AP1-luciferase Reporter. In words: DGK AP1-Reporter Assay. It counts as cell-based. Conditions: Homo sapiens, Jurkat. The gist of the method:
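Jurkat cells carrying a lentiviral AP1-luciferase reporter received 30 nl compound per well for 20 min at 37 °C and 5% CO2. They were then stimulated for 6 h with anti-CD3 solution at 0.4 μg/mL; reference wells received 4 μg/mL and unstimulated wells medium only. Readout was Steady-Glo luciferase luminescence (RLU).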
For orientation: In a reporter assay the amount or activity of a reporter protein is the signal.

Setting [3] is: read-out: DGKAP1 Lucif Reporter IC50, Table 4.

Sequence of human DGKα (P23743 other isoform, or with tags, fused parts or gaps): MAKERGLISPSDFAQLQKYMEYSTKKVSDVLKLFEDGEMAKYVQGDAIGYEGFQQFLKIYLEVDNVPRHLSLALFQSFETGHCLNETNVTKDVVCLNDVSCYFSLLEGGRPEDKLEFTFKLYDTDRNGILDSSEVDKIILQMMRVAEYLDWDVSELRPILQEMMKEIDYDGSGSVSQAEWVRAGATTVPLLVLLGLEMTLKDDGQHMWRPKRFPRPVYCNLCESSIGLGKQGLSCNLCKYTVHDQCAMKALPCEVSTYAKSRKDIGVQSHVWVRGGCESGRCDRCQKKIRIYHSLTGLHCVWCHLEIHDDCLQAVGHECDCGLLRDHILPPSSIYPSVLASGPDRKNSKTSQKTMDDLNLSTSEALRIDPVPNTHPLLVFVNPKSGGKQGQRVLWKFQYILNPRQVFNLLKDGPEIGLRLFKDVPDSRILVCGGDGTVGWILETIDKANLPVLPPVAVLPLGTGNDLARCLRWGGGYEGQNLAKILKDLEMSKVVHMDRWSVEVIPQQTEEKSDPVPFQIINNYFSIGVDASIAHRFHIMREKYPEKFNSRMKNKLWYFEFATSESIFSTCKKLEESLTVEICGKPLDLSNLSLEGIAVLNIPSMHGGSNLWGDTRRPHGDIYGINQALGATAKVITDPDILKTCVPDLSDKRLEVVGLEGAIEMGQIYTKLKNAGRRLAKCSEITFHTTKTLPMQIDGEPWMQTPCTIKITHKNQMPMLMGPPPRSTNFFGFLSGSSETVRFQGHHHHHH

For the compound `COc1cc(F)ccc1C(c1ccc(F)cc1)N1CCN(c2c([N+](=O)[O-])c(=O)n(C)c3ccc(C#N)nc23)CC1` (single isomer, unassigned) [Example 124, 8-(4-((4-fluoro-2-methoxyphenyl)(4-fluorophenyl)methyl)piperazin-1-yl)-5-methyl-7-nitro-6-oxo-5,6-dihydro-1,5-naphthyridine-2-carbonitrile], the IC50 amounted to 0.04 µM in test [1]; 0.75 µM against human DGKα; 0.1 µM in test [2] (read-out: API-Luciferase Reporter IC50, Table 3); 0.57 µM in test [2] (setting [3]).

Take `C#CCn1c(=O)c([N+](=O)[O-])c(N2CCN(C(c3ccc(F)cc3)C3CC3)CC2)c2nc(C#N)ccc21` (single isomer, unassigned) [Example 143, 8-(4-(cyclopropyl(4-fluorophenyl)methyl)piperazin-1-yl)-7-nitro-6-oxo-5-(prop-2-yn-1-yl)-5,6-dihydro-1,5-naphthyridine-2-carbonitrile]: the IC50 in test [1] was 1.41 µM; against human DGKα, 3.4 µM; in test [2] (setting [3]) it was 1.28 µM.

As to `Cc1ccc2c(n1)c(N1CCN(C(C)c3ccc(F)cc3)CC1)c(Br)c(=O)n2C` (stereo not shown) [Example 224, 3-bromo-4-(4-(1-(4-fluorophenyl)ethyl)piperazin-1-yl)-1,6-dimethyl-1,5-naphthyridin-2(1H)-one], the figures for the IC50 (in test [1]; against human DGKα; in test [2] (setting [3])) were 10 µM, 0.14 µM and 10 µM, respectively.
